Experiments:
[1] = In vitro inhibition of calcium phosphate crystallization in human plasma (spectrophotometric); type: biochemical; conditions: 0-100 μM, 1.5 mM phosphate, 12.5 mM calcium, pH 7.4, 30 min, rt, read-out: Relative Potency (EC50, inhibition of calcium phosphate crystallization)
How it was run: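 Human plasma spiked with compound (0-100 μM), centrifuged, then brought to final 1.5 mM phosphate and 12.5 mM calcium, pH 7.4. Absorbance at 550 nm read every 3 min for 30 min at rt; inhibition from slopes (6-24 min, absorbance vs log time) relative to blank plasma.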

[2] = Rat vitamin D3 model: blood perfusion of posterior limbs by laser doppler perfusion imaging; type: in vivo, Sprague Dawley rat; conditions: FIG. 13
Experimental: Statistical analysis: One-way ANOVA with Fisher's LSD test for post-hoc comparisons. The result of the ANOVA was p<0.0001. (#) indicates significant differences vs sham, (*) indicates significant differences vs vehicle, (§) indicates significant differences vs Compound 27 5 mg/kg (only applies to other Compound 27 doses), p<0.05. N=10-12 animals/group.
The model evaluated the effects of Compound 27 on tissue calcification, blood perfusion, and walking ability in rats for a duration of 13 days. Tissue calcification was induced in groups 2-5 from D1 to D3. Animals induced with calcification were administered placebo or active agent formulations from D1 onwards to assess their effects in preventing calcification. The impact of treatment on tissue calcification, blood perfusion, and walking ability was evaluated. Observations were taken at several points during the treatment from D0 to D13. All animals were weighed every day before treatment. […]
Blood perfusion (BP) was evaluated by laser doppler perfusion imaging applied to the posterior limbs of the animals using a PeriCam PSI Normal Resolution analyzer (Perimed A B, Järfälla, S E). […] The perfusion ratio (i.e., mean of the two legs) was calculated by comparing the baseline and either D4 or D13 readings for each group. In addition, the perfusion ratio was calculated by comparing group 1 and groups 2-5.

[3] = Rat vitamin D3 model: walking ability, forced incremental treadmill test; type: in vivo, Sprague Dawley rat
Experimental: FIG. 14 depicts the mean maximum walking distance (±SD) in Sham rats (no VitD3 treatment) and rats treated with vehicle, Compound 27 (5, 15, and 45 mg/kg). Statistical analysis: One-way ANOVA with Fisher's LSD test for post-hoc comparisons. The result of the ANOVA was p<0.0001. (#) indicates significant differences vs. sham, (*) indicates significant differences vs vehicle, (§) indicates significant differences vs Compound 27 5 mg/kg (only applies to other Compound 27 doses), (¥) indicates significant differences vs Compound 27 15 mg/kg (only applies to Compound 27 45 mg/kg), (‡) significant differences vs Compound 27 45 mg/kg, p<0.05.
The model evaluated the effects of Compound 27 on tissue calcification, blood perfusion, and walking ability in rats for a duration of 13 days. Tissue calcification was induced in groups 2-5 from D1 to D3. […] The impact of treatment on tissue calcification, blood perfusion, and walking ability was evaluated. […]
Maximal walking time (MWT) and maximal walking distance (MWD) were assessed by forced incremental treadmill running tests using a two-lane touch screen treadmill device for rats (Cat. No. LE8709TS, Panlab, Harvard Biosciences, Inc., Holliston, MA, US) with a 15% inclination. […]
For group 2, the treadmill assessment started 15 min after dosing. […] MWD (in meters) and MWT (in minutes) were recorded for each animal.

Substance: 4,6-O-bis(5-acetamidopentyl)-myo-inositol-1,2,3,5-tetrakis(phosphate) octasodium salt [Compound 27]
- EC50 [1]: ≤ 5 µM
- Effect on blood perfusion ([2]; 5, 15, 45 mg/kg s.c. daily, D13): dose-response effect from 5 mg/kg
- Recovery of posterior limb blood perfusion ([2]; 15 and 45 mg/kg s.c. daily): recovery of posterior limb blood perfusion at doses of 15 and 45 mg/kg
- Effect on maximum walking distance ([3]; 5, 15, 45 mg/kg s.c. daily, FIG. 14): dose-response effect from 5 mg/kg
- Improvement of walking ability ([3]; 15 and 45 mg/kg s.c. daily, as early as D5 after induction): improves the walking ability of rats administered with vitamin D as early as D5 after the induction of the PAD disease, in a dose-response manner
